Tested on: T1, GCaMP5-expressing T. gondii
T1 construct: whole extracellular parasites expressing GCaMP5 Ca2+ sensor
Design: species or system GCaMP5-expressing Toxoplasma gondii, extracellular; GCaMP5 fluorescence (cytosolic Ca2+) after 100 uM zaprinast in compound-pretreated extracellular parasites, background-subtracted, relative to zaprinast alone
Details: 100 uM zaprinast stimulation; 10 min pretreatment; mean of two replicates; 0.23 h
In short: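 Extracellular GCaMP5-expressing parasites in Ringer's solution were pretreated with compounds (single 10 μM dose, two biological replicates) for 10 min, then stimulated with 100 μM zaprinast at 37 °C for 4 min. Fluorescence read at 485/525 nm, basal subtracted, expressed as fold change relative to zaprinast-only parasites.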

Compound	fold change in fluorescence relative to zaprinast alone
Cc1ccc(NC(=O)c2ccc(Cl)c(Cl)c2)cc1-c1ccc(C(=O)Nc2ccncc2)cc1 [GSK1398460A]	1.557
COc1cc2c(cc1Nc1nc(Nc3ccsc3C(N)=O)c3cc[nH]c3n1)N(C(=O)CN(C)C)CCC2 [GSK2110236A]	1.302
Nc1ncnc2c1ncn2-c1cccc(F)c1 [SKF-97560]	1.042
N#Cc1ccc(CCNc2nccc(-c3cccc(CN4CCNCC4)c3)n2)cc1 [GSK2137462A]	0.3754
COc1cccc(-n2ncc3c(N/N=C/c4cccc(F)c4)ncnc32)c1 [GW817394X]	1.201
COc1cc(Nc2nccc(N3CCC(NS(=O)(=O)c4ccc(NC(C)=O)cc4)CC3)n2)cc(OC)c1OC [GSK1379825A]	1.055
Cn1cc(-c2ccc3c(c2)CCN3C(=O)Cc2cccc(Cl)c2)c2c(N)ncnc21 [GSK2606590A]	1.488
O=C(Nc1n[nH]c2nc(-c3ccc(O)cc3)c(Br)cc12)C1CC1 [SB-725317]	1.144
CCn1c(-c2nonc2N)nc2cncc(CNC3CCNCC3)c21 [SB-747651-A]	1.501
COc1ccc(Nc2nccc(N3CCC(NC(=O)c4cc5ccccc5s4)C3)n2)cc1 (stereo not shown) [GSK1379738A]	0.9419
Fc1ccc(Nc2nccc(-c3c(-c4ccc(Cl)cc4)nn4ncccc34)n2)cc1F [GW829058X]	1.046
O=C(Nc1ccccc1F)NC1CCN(c2ccnc(Nc3ccc(F)cc3)n2)C1 (stereo not shown) [GSK1379722A]	0.7204
c1ccc(COc2ccc(Nc3ncnc4ccc(-c5ccco5)cc34)cc2)cc1 [GW284372X]	0.7189
COC(=O)Nc1nc2cc(Oc3ccc(NC(=O)Nc4cccc(Br)c4)cc3)ccc2[nH]1 [GW694234A]	0.8976
O=C(NCCNc1ccnc(NCc2ccc(F)cc2)n1)c1cc2ccccc2s1 [GSK1379944A]	0.7055
CN(C1=C(c2ccccc2)C(=O)NC1=O)c1ccccc1 [SB-334860]	0.8099
COc1cc(C2=NC(c3ccc(Cl)cc3F)C(C(=O)Nc3ccc4[nH]ncc4c3)=C(C)N2)ccn1 (stereo not shown) [GSK534911A]	1.41
CCCNC(=O)Nc1ccc(N(C)c2ccnc(NC3CC3)n2)cc1 [GW818933X]	0.4908
[O-][S+]1CCN(Cc2ccc(-c3ccc4ncnc(Nc5ccc(OCc6ccccc6)c(F)c5)c4c3)o2)CC1 [GW576924A]	0.1384
CN1C(=O)C(Nc2ccccc2)=C(c2ccccc2)C1=O [SB-300079]	0.899
O=C(O[C@H]1CN[C@H](C#Cc2cc3ncnc(Nc4ccc(OCc5cccc(F)c5)c(Cl)c4)c3s2)C1)N1CCOCC1 [GW869810X]	1.08
CN1CCN(CCCNc2nccc(-c3c(-c4ccc(F)cc4)nn4cc(C(F)(F)F)ccc34)n2)CC1 [GW621581X]	0.8628
CC(C)Nc1cc(-c2ccc3c(N)n[nH]c3c2)nc(N)n1 [GSK2221681A]	1.173
CC(C)NCC(Cc1ccccc1)NC(=O)c1cc(Br)c(-c2ccnc3[nH]ccc23)s1 (stereo not shown) [GSK1383281A]	1.049
COc1ccc(S(=O)(=O)NC2CCN(c3cc(C)nc(Nc4cccc(C#N)c4)n3)CC2)cc1 [GSK1653539A]	0.8764

From paper PMC4850295, “Using a Genetically Encoded Sensor to Identify Inhibitors of Toxoplasma gondii Ca^2+ Signaling” (The Journal of Biological Chemistry, 2016)
